Laboratory results taken from ChEMBL document CHEMBL1201862, “PubChem BioAssay data set” (2004).
Calls of active or inactive are those of the source.

Legend:
[1] = target: T1, Rac GTPase-activating protein 1 (Homo sapiens, UniProt Q9H0H5); assay: MgcRacGAP GTPase-activating activity inhibitors, confirmation, biochemical, ADP Hunter fluorescence, primary and confirmatory (AID 624330); format: functional
T1 sequence (Q9H0H5 whole entry): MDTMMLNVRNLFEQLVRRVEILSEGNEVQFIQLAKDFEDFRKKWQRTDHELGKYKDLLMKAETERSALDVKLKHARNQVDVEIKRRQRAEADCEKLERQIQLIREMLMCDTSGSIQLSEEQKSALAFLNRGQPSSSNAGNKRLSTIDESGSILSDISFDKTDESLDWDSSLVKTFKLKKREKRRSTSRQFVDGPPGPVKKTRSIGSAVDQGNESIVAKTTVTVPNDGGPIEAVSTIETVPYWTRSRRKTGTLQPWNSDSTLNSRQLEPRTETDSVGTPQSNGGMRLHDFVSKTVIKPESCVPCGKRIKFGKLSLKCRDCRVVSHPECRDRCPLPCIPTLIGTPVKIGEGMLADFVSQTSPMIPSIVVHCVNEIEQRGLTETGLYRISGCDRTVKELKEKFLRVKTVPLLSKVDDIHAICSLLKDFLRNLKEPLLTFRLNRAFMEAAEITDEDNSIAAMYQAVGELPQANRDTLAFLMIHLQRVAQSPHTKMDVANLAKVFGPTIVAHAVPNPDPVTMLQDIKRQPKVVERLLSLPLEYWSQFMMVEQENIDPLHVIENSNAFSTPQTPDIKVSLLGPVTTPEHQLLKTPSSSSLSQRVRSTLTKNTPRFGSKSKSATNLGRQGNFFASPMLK

[2] = Luminescence Cell-Based Dose Retest to Confirm Inhibitors of Cancer Stem Cells. [Related pubchem assays (depositor defined):AID2717, AID2721]; format: functional; conditions: Homo sapiens
Cytochrome P450 3A4 = Cytochrome P450 3A4 (Homo sapiens, UniProt P08684);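 note: CYP3A4 tested as one member of a cytochrome P450 panel screen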
[3] = inhibitors of intracellular T. cruzi replication, confirmation, NIH3T3 host cells, beta-gal luminescence (AID 2044); format: functional, cell-based;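 note: intracellular parasites grown in NIH/3T3 mouse fibroblasts as host cells; luminescent beta-galactosidase reporter signal from transgenic T. cruzi replicating inside host cells; inhibitors lower the luminescence signal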
[4] = cytotoxicity toward NIH3T3 fibroblasts, dose response, counter-screen, cell-based, ATP luminescence, mouse fibroblasts (AID 2010); format: functional;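 note: cells exposed to compound for about 90 hours before reading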
H4 = assay: Luminescence Cell-Based Dose Response HTS to Identify Activators of 5'UTR Stem-Loop Driven Prion Protein mRNA Translation in H4 Neuroglioblastoma Cells. [Related pubchem assays: 1829 (Project Summary), 1814 (Primary HTS)]; format: functional; conditions: Homo sapiens
Cytochrome P450 2C19 = Cytochrome P450 2C19 (Homo sapiens, UniProt P33261); assay: Cytochrome panel assay with activity outcomes. Panel member name: p450-cyp2c19 Compounds with AC50 equal or less than 10 uM are considered active; format: functional
Protein skinhead-1 = target: T2, Protein skinhead-1 (Caenorhabditis elegans, UniProt P34707); format: functional
T2 sequence (P34707 whole entry): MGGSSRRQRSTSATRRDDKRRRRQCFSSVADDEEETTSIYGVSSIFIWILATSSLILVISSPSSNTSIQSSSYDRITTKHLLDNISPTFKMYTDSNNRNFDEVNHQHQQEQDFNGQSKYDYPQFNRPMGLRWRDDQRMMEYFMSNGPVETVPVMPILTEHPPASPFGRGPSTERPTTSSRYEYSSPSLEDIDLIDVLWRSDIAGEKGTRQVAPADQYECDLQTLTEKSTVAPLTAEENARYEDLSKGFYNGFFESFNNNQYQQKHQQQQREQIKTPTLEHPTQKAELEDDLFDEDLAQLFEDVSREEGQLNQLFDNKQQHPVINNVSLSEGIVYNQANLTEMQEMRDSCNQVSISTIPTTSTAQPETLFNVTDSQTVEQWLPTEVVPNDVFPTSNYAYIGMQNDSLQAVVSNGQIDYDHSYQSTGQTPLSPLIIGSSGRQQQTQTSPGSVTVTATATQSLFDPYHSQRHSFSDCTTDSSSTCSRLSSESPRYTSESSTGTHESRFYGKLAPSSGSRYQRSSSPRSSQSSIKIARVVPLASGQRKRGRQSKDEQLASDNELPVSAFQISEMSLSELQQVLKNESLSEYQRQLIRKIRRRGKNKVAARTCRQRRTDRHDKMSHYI

Protein RecA = target: T3, Protein RecA (Mycobacterium tuberculosis, UniProt P9WHJ3); assay: Fluorescence Cell-Free Homogeneous Dose Retest to Identify Inhibitors of RecA-Intein Splicing Activity. [Related pubchem assays (depositor defined):AID2097, AID2223, AID489010, AID492950]; format: functional
T3 sequence (P9WHJ3 whole entry): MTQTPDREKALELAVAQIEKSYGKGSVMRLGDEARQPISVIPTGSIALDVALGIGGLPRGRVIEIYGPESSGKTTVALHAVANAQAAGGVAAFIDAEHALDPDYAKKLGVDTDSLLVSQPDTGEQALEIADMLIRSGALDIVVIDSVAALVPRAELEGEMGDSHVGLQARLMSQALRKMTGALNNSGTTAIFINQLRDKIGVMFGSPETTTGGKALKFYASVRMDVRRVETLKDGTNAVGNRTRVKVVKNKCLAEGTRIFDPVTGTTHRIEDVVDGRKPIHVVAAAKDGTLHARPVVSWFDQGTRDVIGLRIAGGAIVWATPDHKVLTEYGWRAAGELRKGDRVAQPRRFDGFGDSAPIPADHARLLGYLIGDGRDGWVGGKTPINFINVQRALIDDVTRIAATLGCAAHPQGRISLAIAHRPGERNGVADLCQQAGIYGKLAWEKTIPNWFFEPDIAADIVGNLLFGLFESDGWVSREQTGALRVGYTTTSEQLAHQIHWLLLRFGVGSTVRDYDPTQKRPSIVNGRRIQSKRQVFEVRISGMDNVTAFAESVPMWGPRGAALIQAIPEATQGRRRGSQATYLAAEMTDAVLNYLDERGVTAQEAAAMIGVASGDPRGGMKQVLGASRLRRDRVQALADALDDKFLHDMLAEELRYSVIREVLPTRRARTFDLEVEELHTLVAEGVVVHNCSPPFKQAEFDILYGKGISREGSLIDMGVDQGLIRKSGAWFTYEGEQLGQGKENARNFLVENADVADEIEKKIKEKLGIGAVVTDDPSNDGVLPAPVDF

Streptococcus = assay: Group A Streptococcus viability loss, dose response, counter-screen for streptokinase expression inhibitor project, luminescence, BacTiterGlo (AID 1915); format: functional, organism-based;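 note: potency for reduction of bacterial viability or growth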
[5] = test system: Streptococcus sp. 'group A'; assay: growth inhibition of control SK(-) GAS strain, dose response, counter-screen for streptokinase expression inhibitor project, luminescence, kanamycin, BacTiterGlo, confirmation (AID 1900); format: functional, organism-based

Chain of Cytochrome P450 3A4 (P08684 whole entry): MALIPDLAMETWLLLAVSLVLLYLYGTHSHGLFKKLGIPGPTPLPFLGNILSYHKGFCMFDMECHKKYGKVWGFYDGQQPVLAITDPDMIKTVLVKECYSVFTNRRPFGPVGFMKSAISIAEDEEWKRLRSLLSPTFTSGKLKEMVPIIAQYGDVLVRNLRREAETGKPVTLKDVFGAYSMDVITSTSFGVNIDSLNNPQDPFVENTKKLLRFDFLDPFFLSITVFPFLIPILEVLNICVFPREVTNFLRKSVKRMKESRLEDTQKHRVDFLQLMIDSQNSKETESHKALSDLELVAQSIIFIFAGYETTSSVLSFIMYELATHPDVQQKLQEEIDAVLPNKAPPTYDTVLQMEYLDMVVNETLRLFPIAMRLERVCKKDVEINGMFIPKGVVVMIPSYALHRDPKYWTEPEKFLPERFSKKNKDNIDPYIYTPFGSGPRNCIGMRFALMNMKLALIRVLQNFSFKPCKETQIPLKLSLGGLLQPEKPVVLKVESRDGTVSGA
Chain of Cytochrome P450 2C19 (P33261 whole entry): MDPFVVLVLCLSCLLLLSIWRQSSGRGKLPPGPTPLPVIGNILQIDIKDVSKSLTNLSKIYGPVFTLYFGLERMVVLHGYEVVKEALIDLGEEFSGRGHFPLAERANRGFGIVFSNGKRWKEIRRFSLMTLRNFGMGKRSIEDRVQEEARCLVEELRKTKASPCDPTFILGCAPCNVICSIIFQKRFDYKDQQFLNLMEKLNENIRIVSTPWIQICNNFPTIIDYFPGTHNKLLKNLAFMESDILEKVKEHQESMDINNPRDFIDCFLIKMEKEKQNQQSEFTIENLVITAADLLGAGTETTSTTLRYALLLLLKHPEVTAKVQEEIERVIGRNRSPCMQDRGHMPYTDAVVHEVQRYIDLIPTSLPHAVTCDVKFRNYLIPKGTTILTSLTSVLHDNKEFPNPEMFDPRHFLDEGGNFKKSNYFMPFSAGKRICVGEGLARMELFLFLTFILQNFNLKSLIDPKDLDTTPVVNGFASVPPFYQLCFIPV

Oc1ccc(/C=C/c2nc3ccccc3nc2O)cc1
IC50 [1]: 31.5 µM (active)

Cc1cccc(-c2nc(C#N)c(NC3CCCCC3)o2)c1
AC50 [2]: 2.45 µM (active)

CC[C@@H]1OC(=O)[C@H](C)[C@H](O[C@@H]2C[C@](C)(OC)[C@H](O)[C@H](C)O2)[C@H](C)[C@H](O[C@@H]2O[C@@H](C)C[C@@H](N(C)C)[C@@H]2O)[C@](C)(O)C[C@H](C)C(=O)[C@H](C)[C@H](O)[C@]1(C)O
AC50 (Cytochrome P450 3A4): 12.6 µM (inconclusive)

COc1ccc(CCNC(=O)CN(c2ccccc2OC)S(=O)(=O)c2ccc(C)cc2)cc1
EC50 [3]: 4.73 µM (active) | EC50 [4]: 19.3 µM (active)

Cc1ccc(C)c(S(=O)(=O)N2CCN(C(=O)CCCc3c[nH]c4ccccc34)CC2)c1
EC50 [3]: 4.01 µM (active) | EC50 [4]: > 60 µM (not active)

CCCn1c(C)cc(C(=O)COc2ncnc3sccc23)c1C
EC50 (H4): > 120 µM (not active)

CCOC(=O)C1C(=O)C=C(c2ccc(NS(C)(=O)=O)cc2)CC1c1ccco1 (stereo not drawn)
AC50 (Cytochrome P450 3A4): 25.1 µM (inconclusive)

c1ccc(OCCCN2CCCC2)cc1
IC50 [1]: 159 µM (active)

CO[C@@]12C[C@@H](COC(=O)c3cncc(Br)c3)CN(C)[C@H]1Cc1cn(C)c3cccc2c13
AC50 (Cytochrome P450 2C19; read-out: AC50): 7.94 µM (inconclusive)

COc1ccc(/C=C2\SC(=S)N(CCC(=O)N(CCO)Cc3ccccc3)C2=O)cc1OC
EC50 [3]: 3.32 µM (active) | EC50 [4]: > 60 µM (not active)

C=C1C/C(=C\C)C(=O)O[C@@H]2CCN3CC=C(COC(=O)[C@@]1(C)O)[C@H]23
AC50 (Cytochrome P450 3A4): 12.6 µM (inconclusive) | AC50 (Cytochrome P450 2C19): inconclusive

CC(C)c1ccc(/C=C/C(=O)NC2=NCCS2)cc1
AC50 [2]: 1.99 µM (active)

CCCSc1nc2sc3c(c2c(=O)n1-c1ccc(OC)cc1)CCN(C)C3
EC50 [3]: 0.12 µM (active) | EC50 [4]: > 30 µM (not active)

COCCNC(=O)C1CCN(S(=O)(=O)N2CCC3(CC2)OCCO3)CC1
AC50 (Cytochrome P450 2C19; read-out: AC50): 15.8 µM (inconclusive)

O=[N+]([O-])c1ccc(OCc2cnc(Cl)s2)cc1
IC50 (Protein skinhead-1): 50.3 µM (inactive)

O=C(CNCCO)N1CCc2ccccc21
AC50 (Cytochrome P450 3A4): 1.41 µM (inconclusive)

Cc1c(-c2ccccc2)sc(N)c1C(=O)N1CCOCC1
IC50 [1]: 41.5 µM (active)

COc1cc(OC)cc(C(=O)N2CCN(Cc3ccc4c(c3)OCO4)CC2)c1
IC50 [1]: 188 µM (active)

COc1cccc(Nc2ncc3nc(-c4cc(F)cc(F)c4)c(=O)n(C[C@H]4CCCO4)c3n2)c1
AC50 (Cytochrome P450 3A4): 6.31 µM (inconclusive)

O=C(CN1CCN(S(=O)(=O)c2ccc(Br)cc2)CC1)Nc1ccccc1C(=O)c1ccccc1
EC50 [3]: 1.08 µM (active) | EC50 [4]: > 60 µM (not active)

Cc1cccc(NC(=O)Nc2ccc3c(c2)OCO3)n1
EC50 (H4): 9.72 µM (active)

CCCCc1ccc(NC(=O)CSc2nc(=O)n(CCN(CC)CC)c3c2CCC3)cc1
AC50 [2]: 11.2 µM (active)

Nc1ccc2[nH]cc(CCC(=O)O)c2c1
AC50 (Cytochrome P450 2C19): inconclusive

CC(=O)NCCNc1ccnc(-c2ccccc2C)n1
AC50 (Cytochrome P450 3A4): 20 µM (inconclusive)

Cc1ccc2cc3cc(C(=O)N4CC(C)CC(C)C4)oc3nc2c1 (stereo not drawn)
IC50 (Protein skinhead-1): > 100 µM (inactive)

COc1cc(CCN2C(=O)c3cccc4cccc(c34)C2=O)c(S(=O)(=O)N2CCCCCC2)cc1OC
EC50 [3]: 1.9 µM (active) | EC50 [4]: > 30 µM (not active)

COCCCn1c(=O)c2ccccc2n(Cc2cccc(C)c2)c1=O
IC50 (Protein skinhead-1): > 100 µM (inactive)

N#CC1=C(Nc2ccccc2Cl)SC(c2ccccc2O)NC1=O (stereo not drawn)
IC50 [1]: 129 µM (active)

COCCCN=C(S)NC1CC2CCCC(C1)N2Cc1cccs1 (stereo not drawn)
AC50 (Cytochrome P450 2C19; read-out: AC50): 1.26 µM (inconclusive)

COc1ccccc1CN1CCCC2(CCN(C(=O)c3csnn3)CC2)C1
AC50 (Cytochrome P450 3A4): 15.8 µM (inconclusive)

Cc1sc(-n2c(C)cc(/C=C3\SC(=S)NC3=O)c2C)c(C#N)c1C
AC50 [2]: 2.5 µM (active)

C=CCN1C(=O)C(CC(=O)Nc2ccc(OCCC)cc2)N(CCCN2CCN(Cc3ccccc3)CC2)C1=S (stereo not drawn)
EC50 [3]: 3.01 µM (active) | EC50 [4]: > 60 µM (not active)

O=C(Nc1cc(-c2ccccc2)n[nH]1)c1ccccc1
IC50 (Protein skinhead-1): > 100 µM (inactive)

O=C(C1=C(O)C(=O)N(c2cccc(Cl)c2)C1c1ccccc1[N+](=O)[O-])c1ccccc1 (stereo not drawn)
AC50 (Cytochrome P450 3A4): 12.6 µM (inconclusive)

O=C(NC1CONC1=O)OCC(Cl)(Cl)Cl (stereo not drawn)
AC50 [2]: > 195 µM (inactive)

COc1ccccc1N=C(S)NNC(=O)c1c(Cl)c(C)nn1C
AC50 (Cytochrome P450 2C19): inconclusive

O=C(c1cc(-c2ccncc2)nc2ccc(Br)cc12)N1CCN(Cc2ccc3c(c2)OCO3)CC1
EC50 [3]: 0.384 µM (active) | EC50 [4]: 54.9 µM (active)

O=C(Nc1ccccc1)c1ccc(N2CCN(c3ccccc3)CC2)c(S(=O)(=O)N2CCOCC2)c1
EC50 [3]: 2.04 µM (active) | EC50 [4]: > 60 µM (not active)

COc1cc(CNC(C)c2ccccc2)cc(Br)c1OCc1ccccc1 (stereo not drawn)
AC50 [2]: 5.92 µM (active)

CCOc1ccc2c(c1)-c1c(ssc1=S)C(C)(C)N2
EC50 (Protein RecA): 3.17 µM (active)

COc1ccc(CNc2ncc(-c3ccccc3)n2C)c(OC)c1OC
IC50 [1]: 65.7 µM (active)

Cc1cnc(CNc2ccnc(-c3ccccc3C)n2)cn1
AC50 (Cytochrome P450 3A4): 20 µM (inconclusive)

COc1cc(N=Nc2ccc(C)cc2S(N)(=O)=O)c(C)cc1N
IC50 [1]: 76.2 µM (active)

Sc1nnc2sc3ccccc3n12
IC50 [1]: 35.8 µM (active)

COc1ccc(NC2CCCN(C(=O)CCc3scnc3C)C2)cc1 (stereo not drawn)
IC50 [1]: 96.1 µM (active)

CSc1ccccc1C(=O)NCCOc1cccc(C)c1
IC50 (Protein skinhead-1): > 100 µM (inactive)

O=C(CN(Cc1ccccc1Cl)C(=O)c1ccc(CN2CCOCC2)o1)NCC1CCCO1 (stereo not drawn)
AC50 (Cytochrome P450 2C19; read-out: AC50): 10 µM (inconclusive)

CCn1cc(C(=O)O)c(=O)c2cc(F)c(N3CCN(S(=O)(=O)c4ccc(NC(C)=O)cc4)CC3)cc21
EC50 (Streptococcus): 7.08 µM (active) | EC50 [5]: 5.05 µM (active)

O=C(O)c1ccccc1C(=O)Nc1ccc(Nc2ccccc2)cc1
IC50 [1]: 55.5 µM (active)

Cc1ccc(/C=N/Nc2cc(C)nc(NCc3ccccc3)n2)cc1
AC50 [2]: 6.45 µM (active)

Oc1ccccc1/C=N/NP(=S)(c1ccccc1)c1ccccc1
AC50 [2]: 2.69 µM (active)

O/N=C/c1ccnc(SCc2ccc(Cl)cc2)n1
AC50 [2]: 3.58 µM (active)
